Columns and labels:
[1] = tested on: MDA-MB-231 (human breast cancer) cell line; assay: Antiproliferative activity, MTS assay, MDA-MB-231; format: cell-based; conditions: 48 h exposure
Method: (§1) Human colorectal carcinoma cell line (HCT116), human breast cancer cell lines (MDA-MB-231 and MCF-7), and normal human primary dermal fibroblasts neonatal (PCS-201-010) cell line were grown in DMEM (Dulbecco’s modified Eagle’s medium) (Invitrogen Corp., Grand Island, NY, USA) supplemented with 10% (v/v) fetal bovine serum and 1% (v/v) antibiotic/antimycotic solution (Invitrogen Corp.). The human ovarian carcinoma (A2780) cell line was cultivated using RPMI (Roswell Park Memorial Institute) medium supplemented as in DMEM medium. The supplemented medium is named a complete medium. Cells were grown in an incubator with a humidified atmosphere at 5% (v/v) CO2 and 37 °C. All cell lines were purchased from ATCC (ATCC, American Type Culture Collection).
(§2) The evaluation of the cytotoxic potential of complexes 1–4 was obtained through in vitro measurements of the antiproliferative activity of these complexes. Cells were plated in 96-well plates at 7.5 × 10^4 cells/mL and incubated at 37 °C with 5% (v/v) CO2. After 24 h, the culture medium was replaced with fresh medium (100 μL) containing 0.1–50 μM of the different complexes and incubated for 48 h in tumor cell lines or containing 0.1–100 μM of the different complexes and incubated for 48 h in fibroblasts. […] The fibroblast cell line was used as a control of the cytotoxicity of the complexes for healthy cells. Cell viability was evaluated using Cell Titer 96 Aqueous Non-Radioactive Cell Proliferation Assay (Promega, Madison, WI, USA) using 3-(4,5-dimethylthiazol-2-yl)-5-(3-carboxymethoxyphenyl)-2-(4-sulfophenyl)-2H-tetrazolium inner salt (MTS), as described previously.[60] In metabolically active cells, enzymes present in the mitochondria catalyze a reaction in which NADPH/NADH is produced. These enzymes reduce the MTS reagent into a brownish product, Formazan, which can be quantified by measuring the absorbance at 490 nm. The quantity of formazan produced is directly proportional to the number of viable cells in the culture. This quantification was executed with a Biorad microplate reader Model 680 (Bio-Rad, Hercules, CA, USA). Half maximal inhibitory concentration (IC50) was calculated using GraphPad Prism 6 (GraphPadSoftware). We have calculated the ratio between the IC50 of fibroblasts and the IC50 of HCT116, A2780, MDA-MB-231, or MCF-7 cell lines for complexes 1–4 that was named herein as the Selectivity index (SI). To ensure the solubility of the complexes in all biological assays, complex solutions were freshly prepared and well solubilized before addition to the cells.

[2] = tested on: A2780 cell line; assay: Apoptosis induction, Annexin V/PI flow cytometry; format: cell-based, human; conditions: A2780, IC50 of each complex, 48 h
Method: The induction of apoptosis was evaluated by flow cytometry in the A2780 cell line, through the Alexa Fluor Annexin V/Dead Cell Apoptosis Kit (ThermoFisher Scientific). A2780 cells were seeded at a density of 2 × 10^5 cells/well in 6-well plates and incubated for 24 h. After that time, the medium was replaced by medium mixed with complexes 2–4 at their IC50. […] After a period of 48 h of incubation, cells were washed with PBS 1× and TE was used to detach the cells. The cells were resuspended in annexin-binding buffer 1× and incubated for 15 min at RT with Alexa Fluor 488 annexin V and Propidium Iodide. All samples were analyzed by an Attune Acoustic Focusing Flow Cytometer (ThermoFisher Scientific) and respective software.

[3] = tested on: A2780 cell line; assay: Autophagy induction, flow cytometry; format: cell-based, human; conditions: for levels of autophagy: A2780, 48 h, complexes at IC50, DOX 0.4 μM, cisplatin 5 μM, rapamycin 500 nM for 15 h; for increase of autophagy compared to the control: A2780, IC50, 48 h, vs DMSO 0.1%
Method: The autophagy induced by complexes 2–4 was evaluated using the Autophagy Assay Kit (ab139484, Abcam, Cambridge, United Kingdom) according to the manufacturer’s instructions. For this, the A2780 cell line was seeded at a density of 2 × 10^5 cells/well in 6-well plates and incubated for 24 h at the conditions mentioned before. […] The positive control Rapamycin at 500 nM was incubated for only 15 h. After 48 h incubation, the cells were washed with PBS 1×, detached with TE, and treated with the Autophagy detection kit (Abcam, Cambridge, UK) according to the manufacturer’s instructions. The evaluation of autophagy induction was done through the Attune acoustic focusing flow cytometer (ThermoFisher Scientific) and respective software.

[4] = tested on: A2780 cell line; assay: Mitochondrial membrane potential (ΔΨM), JC-1 flow cytometry; format: cell-based, human; conditions: A2780, IC50, 48 h, JC-1 red/green ratio vs DMSO
Method: ΔΨM was evaluated in the A2780 cell line using the JC-1 Mitochondrial Membrane Potential Assay Kit (Abnova, Taipei, Taiwan). Cells were seeded at a density of 2 × 10^5 cells/well in 6-well plates and incubated for 24 h. […] After an incubation of 48 h, the cells were washed with PBS 1×, detached with TE, and incubated with JC-1 in RPMI medium without phenol red + 5% (v/v) FBS for 20 min at 37 °C. The cells were then resuspended in the same medium and the ΔΨM was evaluated with the Attune acoustic focusing flow cytometer (ThermoFisher Scientific) and respective software.

[5] = tested on: normal human primary dermal fibroblasts; assay: Antiproliferative activity, MTS assay, healthy fibroblasts; format: cell-based; conditions: 48 h exposure, healthy human cells
Method: as §1, §2

Compound | IC50 [1] | percentage of cells in initial apoptosis [2] | percentage of cells in late apoptosis [2] | percentage of cells in necrosis [2] | total apoptosis levels [2] | levels of autophagy [3] | increase of autophagy compared to the control [3] | mitochondrial membrane potential (ΔΨM) change [4] | IC50 [5]
Cc1ccnc(-c2cc(C)ccn2)c1.O=S(=O)([O-])C(F)(F)F.O=S(=O)([O-])C(F)(F)F.[Co+3].c1cc[cH-]c1.c1ccc(P(c2ccccc2)c2ccccc2)cc1 [Complex 2, [Co(η^5-C5H5)(PPh3)(Me2bipy)][(CF3SO3)2]] | > 50 µM | 5.0% | 0.8% | 7.8% | 5.8% | 81.5% | 1.9 × | low (without statistical significance) ΔΨM | > 100 µM
O=S(=O)([O-])C(F)(F)F.O=S(=O)([O-])C(F)(F)F.[Co+3].c1cc[cH-]c1.c1ccc(P(c2ccccc2)c2ccccc2)cc1.c1cnc2c(c1)ccc1cccnc12 [Complex 3, [Co(η^5-C5H5)(PPh3)(phen)][(CF3SO3)2]] | > 50 µM | 5.0% | 0.9% | 6.1% | 5.9% |  | 1.5 × | low (without statistical significance) ΔΨM | > 100 µM
Nc1cc2cccnc2c2ncccc12.O=S(=O)([O-])C(F)(F)F.O=S(=O)([O-])C(F)(F)F.[Co+3].c1cc[cH-]c1.c1ccc(P(c2ccccc2)c2ccccc2)cc1 [Complex 4, [CoCp(PPh3)(NH2phen)][(CF3SO3)2]] | > 50 µM | 5.6% | 0.9% | 5.9% | 6.5% | 95.5% | 2.2 × | an increase in ΔΨM was observed | > 100 µM

Source: PMC10988555, “Exploiting Co(III)-Cyclopentadienyl Complexes To Develop Anticancer Agents” (Inorganic Chemistry, 2024)
